Experimental findings from US20100256123A1, “P2X4 RECEPTOR ANTAGONIST” (NIPPON CHEMIPHAR CO., LTD., priority 2006, published 2010) are described below.

The target of the assay is T1, human P2X4 receptor (Homo sapiens, UniProt Q99571).
T1 sequence (Q99571 1-388): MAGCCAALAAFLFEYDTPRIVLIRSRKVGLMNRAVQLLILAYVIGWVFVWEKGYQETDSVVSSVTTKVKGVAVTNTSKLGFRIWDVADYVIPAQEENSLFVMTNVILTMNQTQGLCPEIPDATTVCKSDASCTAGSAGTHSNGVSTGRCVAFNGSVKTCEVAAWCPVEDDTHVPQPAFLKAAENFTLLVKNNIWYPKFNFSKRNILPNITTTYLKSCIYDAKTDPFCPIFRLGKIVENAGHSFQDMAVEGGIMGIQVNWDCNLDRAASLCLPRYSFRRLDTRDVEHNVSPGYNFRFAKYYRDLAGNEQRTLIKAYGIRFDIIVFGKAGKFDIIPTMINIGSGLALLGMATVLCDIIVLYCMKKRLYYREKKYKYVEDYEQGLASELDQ
Put plainly: P2X4 receptor antagonism: ATP-induced calcium change (Fura2-AM) in 1321N1 cells stably expressing human P2X4 receptor. It is filed as cell-based. To be noted: ATP (10 μm)-induced maximal calcium change = 100% control, compound applied 10 minutes before ATP; for Inhibition ratio % (at 10^−5 M): Pharmacological Experimental 2. How it is done: The P2X4 receptor antagonisms of the compounds according to the invention were determined in the following manner.
(§1) 1321N1 cells were transfected human P2X4 receptor-encoding expression vector using a EUGENE 6 transfection reagent (Roche). After cultivation of one week, it was confirmed that P2X4 receptor was stably expressed. Cells were loaded with Fura2-AM calcium fluorescent dye (SIGMA) and the fluorescence changes were monitored using Aqua-Cosmos (Hamamatsu Photonics). ATP (10 μm)-induced maximal […] calcium change was defined as 100% of control response to calculate the inhibition percentage of test compounds at each concentration. Test compounds were treated onto cells 10 minutes before ATP stimulation.
as §1, with “FuGENE” for “EUGENE”
The experimental procedures of Example 10 were repeated.

Turning to `O=C1CN=C(c2cccc(O)c2)c2ccc3ccccc3c2N1` [Example 2, 5-(3-Hydroxyphenyl)-1,3-dihydro-2H-naptho-[1,2-e]-1,4-diazepin-2-one], the inhibition ratio (at 10^−5M, Pharmacological Experimental 1) was 69%.

In the case of `O=C1CN=C(c2ccc(O)cc2)c2ccc3ccccc3c2N1` [Example 4, 5-(4-Hydroxyphenyl)-1,3-dihydro-2H-naptho-[1,2-e]-1,4-diazepin-2-one], the “Inhibition ratio % (at 10^−5 M)” value was 53%.

With `O=C1CN=C(c2ccc(O)c(O)c2)c2ccc3ccccc3c2N1` [Example 9, 5-(3,4-Dihydroxyphenyl)-1,3-dihydro-2H-naptho[1,2-e]-1,4-diazepin-2-one], the “Inhibition ratio % (at 10^−5 M)” value was 63%.
